Measured values taken from ChEMBL document CHEMBL1147590, “Synthesis and antitumor activity of s-tetrazine derivatives” (Bioorg Med Chem Lett, 2004).

What was measured:
[1] = tested on: P388; experiment: In vitro rate of inhibition of P388 tumor cell growth at 10E-5 mol/L; type: functional, Mus musculus; conditions: at 10 µM
[2] = tested on: P388; experiment: In vitro rate of inhibition of P388 tumor cell growth at 10E-6 mol/L; type: functional, Mus musculus; conditions: at 1 µM
[3] = tested on: P388; experiment: In vitro rate of inhibition of P388 tumor cell growth at 10E-7 mol/L; type: functional, Mus musculus; conditions: at 0.1 µM
[4] = tested on: A549; experiment: In vitro rate of inhibition of A-549 tumor cell growth at 10E-6 mol/L; type: functional, Homo sapiens; conditions: at 1 µM
[5] = tested on: P388; experiment: In vitro rate of inhibition of P388 tumor cell growth at 10E-8 mol/L; type: functional, Mus musculus; conditions: at 0.01 µM
[6] = tested on: P388; experiment: In vitro rate of inhibition of P388 tumor cell growth at 10E-4 mol/L; type: functional, Mus musculus; conditions: at 100 µM
[7] = tested on: A549; experiment: In vitro rate of inhibition of A-549 tumor cell growth at 10E-5 mol/L; type: functional, Homo sapiens; conditions: at 10 µM
[8] = tested on: A549; experiment: In vitro rate of inhibition of A-549 tumor cell growth at 10E-8 mol/L; type: functional, Homo sapiens; conditions: at 0.01 µM
[9] = tested on: A549; experiment: In vitro rate of inhibition of A-549 tumor cell growth at 10E-7 mol/L; type: functional, Homo sapiens; conditions: at 0.1 µM
[10] = tested on: A549; experiment: In vitro rate of inhibition of A-549 tumor cell growth at 10E-4 mol/L; type: functional, Homo sapiens; conditions: at 100 µM

Row | SMILES | Rate of inhibition [1] | Rate of inhibition [2] | Rate of inhibition [3] | Rate of inhibition [4] | Rate of inhibition [5] | Rate of inhibition [6] | Rate of inhibition [7] | Rate of inhibition [8] | Rate of inhibition [9] | Rate of inhibition [10]
1 | CCOC(=O)c1ccc(NC(=O)N2N=C(C)N(C(=O)Nc3ccc(C(=O)OCC)cc3)N=C2C)cc1 | 25.4% | 1.6% | 0% | 0% | 0% | 63.5% | 28.8% | 0% | 0% | 27.3%
2 | CC(=O)N1N=C(c2ccccc2)NN=C1c1ccccc1 | 10.9% | 6.6% | 5.5% | 0% | 9.2% | 62.7% | 0% | 0% | 0% | 85.1%
3 | COC(=O)N1C(c2ccccc2)=NN=C(c2ccccc2)N1C(=O)OC | 14.6% | 11.6% | 5.2% | 0% | 3.3% | 50.5% | 0% | 0% | 0% | 35.5%
4 | CCCC1=NN(C(=O)OCCC(C)C)C(CCC)N=N1 (stereo not given) | 14.3% | 6.9% | 7.3% | 0% | 9.9% | 83.5% | 0% | 0% | 0% | 89.4%
5 | CCCC1=NN(C(=O)OC2CCCCC2)C(CCC)N=N1 (stereo not given) | 33.6% | 38.3% | 44.8% | 23.5% | 4.5% | 44% | 5.2% | 1% | 18.1% | 25.8%
6 | CC1=NN(C(=O)NCc2ccccc2)C(C)=NN1C(=O)NCc1ccccc1 | 57.5% | 50.3% | 22% | 81.8% | 19.6% | 92.8% | 82.3% | 14.1% | 32% | 64.4%
7 | CC1=NN(C(=O)Nc2cc(C)cc(C)c2)C(C)=NN1C(=O)Nc1cc(C)cc(C)c1 | 91.7% | 31.5% | 0% | 37.5% | 0% | 90.7% | 73.9% | 0% | 0% | 86.4%
8 | CC(=O)N1NC(C)N(C(C)=O)NC1C (stereo not given) | 0.1% | 4.3% | 0% | 3.6% | 0% | 14.5% | 6% | 3.2% | 7.4% | 68.5%
9 | c1ccc(Cc2nnc(Cc3ccccc3)nn2)cc1 | 15.6% | 18.5% | 4.6% | 4.3% | 0% | 51% | 61.7% | 0% | 0% | 66.8%
10 | Cc1ccc(-c2nnc(-c3ccc(C)cc3)nn2)cc1 | 8.3% | 4.4% | 2.4% | 0% | 4.5% | 56.4% | 17% | 0% | 0% | 90.3%
11 | COc1ccccc1C(=O)N1N=C(c2ccccc2)NN=C1c1ccccc1 | 25.2% | 7.4% | 0.8% | 4.7% | 0% | 64.5% | 72.6% | 0% | 0% | 90.9%
12 | COc1ccc(NC(=O)N2N=C(C)N(C(=O)Nc3ccc(OC)cc3)N=C2C)cc1 | 36.5% | 14.3% | 6.3% | 0% | 0% | 73% | 0.9% | 0% | 0% | 24.2%
13 | CCCC1=NNC(CCC)N=N1 (stereo not given) | 0% | 0% | 0% | 0% | 0% | 42.2% | 0.5% | 0% | 0% | 61.7%
14 | COc1ccccc1NC(=O)N1N=C(C)N(C(=O)Nc2ccccc2OC)N=C1C | 17.2% | 1.6% | 0% | 0% | 0% | 59.4% | 0% | 0% | 0% | 80%
15 | FC(F)(F)c1ccc(-c2nnc(-c3ccc(C(F)(F)F)cc3)nn2)cc1 | 44.4% | 33% | 19.5% | 0% | 9.7% | 51.5% | 2.5% | 0% | 0% | 40.2%
16 | C1=CN(c2nnc(N3C=CN=CC3)nn2)CC=N1 | 0% | 0% | 0% | 0% | 0% | 69.9% | 3.9% | 0% | 0% | 60.6%
17 | CC1=NN(C(=O)Nc2cccc(N(C)C)c2)C(C)=NN1C(=O)Nc1cccc(N(C)C)c1 | 84.3% | 89.8% | 88.9% | 80.7% | 90.7% | 95.4% | 83% | 69.3% | 73.9% | 93.2%
18 | CCCOC(=O)N1C(c2ccccc2)=NN=C(c2ccccc2)N1C(=O)OCCC | 54.8% | 4.5% | 4.3% | 0.5% | 2.5% | 80.9% | 29.8% | 0% | 0% | 23.4%
19 | CC1=NN(C(=O)Oc2ccccc2)C(C)N=N1 (stereo not given) | 27.9% | 13.6% | 1.2% | 0% | 0% | 85.3% | 0% | 0% | 0% | 32.1%
20 | CC1=NN(C(=O)Nc2cccc([N+](=O)[O-])c2)C(C)=NN1C(=O)Nc1cccc([N+](=O)[O-])c1 | 58.7% | 38.1% | 20.6% | 0% | 22.2% | 69.8% | 0% | 0% | 0% | 0.9%
21 | CC(C)C(=O)N1N=C(c2ccccc2)NN=C1c1ccccc1 | 61.1% | 52% | 24.9% | 38.7% | 46.9% | 82.5% | 46.6% | 29.5% | 29.6% | 83.8%
22 | CCCCCOC(=O)N1N=C(C)N=NC1C (stereo not given) | 19.8% | 7.3% | 0% | 0% | 0% | 42.6% | 4.6% | 7.6% | 1.1% | 22.8%
23 | Clc1cccc(-c2nnc(-c3cccc(Cl)c3)nn2)c1 | 26.5% | 33.2% | 13.5% | 0% | 4.3% | 40.3% | 0% | 0% | 0% | 0%
24 | COc1cc(NC(=O)N2N=C(C)N(C(=O)Nc3cc(OC)cc(OC)c3)N=C2C)cc(OC)c1 | 88.8% | 88.9% | 90.7% | 77.3% | 73.1% | 94.4% | 79.3% | 26.1% | 75% | 87.5%
